Data taken from patent US5686065A, “Topical siloxane sunscreen compositions having enhanced performance and safety” (Special Advanced Biomaterials, Inc., priority 1991, dated 1997).
Like-named read-outs stand apart in the source and are kept apart here.

Experiments:
microbes on skin = settings: general statement, no test given; cited from earlier work
[1] = Description: Ten microliters of each of (a), (b), (c), (d), 2-ethyl-1,3-hexanediol (EHD), N,N-diethyl-m-toluamide (DT), or N,N-diethoxy-m-toluamide (DOT) were applied to separate 7 cm^2 patches of greentree python snake skin once daily for 3 days. At the end of the application period, the patches were washed five times each day for three days with 20 μl of 50/50 ethanol/water using a 3 cm diameter cylinder to enable collection of the washings. The amount of insect repellent washed off was quantified using reverse phase HPLC, C^14 radiocounting or AT/FTIR. The percentage remaining bound after 5, 10, and 15 washes was designated as 100×(amount applied-amount washed off)/(amount applied) and was averaged for 5 samples.
[2] = Humectant remaining bound to snake skin after washing; design: species or system greentree python snake
Description: In the case of (b), 10 μl of ETS was also applied immediately after solution (b).

S. aureus [3] = test: Zone of inhibition on agar of treated snake skin patches; format: cell-based; settings: 24 hours
Description: The patches of snake skin were assayed for antimicrobial activity using 3 methods: (1) zone of antimicrobial activity on agar due to diffusion, (2) quantitation of microbial growth in solution mixing with patch, and (3) quantitation of microbial growth on human skin. The first method was a standard zone of inhibition study in which the bacteria was streaked onto an agar plate, the disk containing the test material was placed on the plate, and then the bacteria were allowed to grow for 24 hours.
(§1) Each result was averaged for samples.

[4] = system: normal skin bacteria (results for S. aureus reported); test: Quantitation of microbial growth on human skin (expanded flora); format: in vivo
Description: The third test involved growing normal skin bacteria by covering the skin with an occlusive dressing such as Saran Wrap (this is referred to as expanding the flora). Prior to expanding the flora, the skin test sites were treated with the test or control solutions as described above. The flora was then expanded for 24 hours, followed by quantitating the bacteria growth. This was done by washing an area of skin with liquid growth medium and spreading the washing on an agar plate. After the bacteria grew the number colonies were counted (Table 8).
as §1

S. aureus [5] = test: Quantitation of microbial growth in solution mixing with treated snake skin patch; format: cell-based; settings: for Microbe Growth/Solution after 5 washes / Microbe Growth/Solution after 15 washes / Microbe Growth/Solution after 10 washes: S. aureus, treated snake skin, 24 hours
Description: In the second test, tubes containing liquid growth medium were inoculated with bacteria, and then the test disk was placed in the tube. The bacteria was allowed to grow for 24 hours and then the number of bacteria per ml was quantified either by light reflectance or by removing a small volume and streaking on an agar plate. The latter method was followed by allowing the bacteria to grow and then counting the colonies (Table 7).
as §1

[6] = by infants; general statement; cited from earlier work
[7] = design: species or system greentree python snake
Description: Ten microliters (a), (b), (c), (d), AT or ethanol/cyclomethicone vehicle was applied separately to a 7 cm^2 patch of greentree python snake skin once daily for 3 days or to a 7 cm^2 patch of shaved rabbit skin. At the end of the application period, the patches were washed five times each day for three days with 20 μl of 50/50 ethanol/water using a 3 cm diameter cylinder to enable collection of the washings. The amount of skin protectant washed off was quantitated using reverse phase HPLC, C^14 radiocounting or AT/FTIR. The percentage remaining bound after 5, 10, and 15 washes was designated as 100×(amount applied-amount washed off)/(amount applied) and was averaged for the 5 samples.

[8] = Modified Draise test: erythema by salicylic acid on treated rabbit skin; format: in vivo; settings: in words, from Table 10
Description: The skin test on rabbits was essentially a modified Draise test for skin in which unabraded skin was studied on partially occluded sites. The skin irritation study was started following skin treatment by one of the test compounds above. In this test, after the compound was applied to the skin, a known skin irritant, 10 μl of 5% salicylic acid in a 50/50 by volume mixture of ethanol/water, was applied once a day for 3 days. The skin was rated for erythema using the scale of 0--no erythema to 4--severe erythema.

[9] = snake skin, insect repellent, 50/50 ethanol/water washes
[10] = human skin, flora expanded 24 hours, S. aureus

[H]/N=C(\N/C(=N/[H])NCCCCCCNC(=N)NC(=N)Nc1ccc(Cl)cc1)Nc1ccc(Cl)cc1 [Chlorhexidene, Chlorhexidine]
antimicrobial effectiveness on skin (microbes on skin): very effective | toxicity / side effects of topical antimicrobial (microbes on skin): causes severe skin drying

CCON(OCC)C(=O)c1cccc(C)c1 [DOT, N,N-diethoxy-m-toluamide]
% bound after 5 washes [1]: 6% | % bound after 10 washes [1]: 1% | % bound after 15 washes [1]: 1%

CCN(CC)C(=O)c1cccc(C)c1 [DT, N,N-diethyl-m-toluamide]
% bound after 5 washes [1, 9]: 10% | % bound after 10 washes [1, 9]: 5% | % bound after 15 washes [1, 9]: 2%

CCCC(O)C(CC)CO (centres unmarked) [EHD, 2-ethyl-1,3-hexanediol]
% bound after 5 washes [1]: 7% | % bound after 10 washes [1]: 2% | % bound after 15 washes [1]: 2%

OCC(O)CO [GL, Glycerol]
% bound after 5 washes [2]: 1% | % bound after 10 washes [2]: 0% | % bound after 15 washes [2]: 0%

Oc1c(Cl)cc(Cl)c(Cl)c1Cc1c(O)c(Cl)cc(Cl)c1Cl [HCP, Hexachlorophene]
Zone of Inhibition after 5 washes (S. aureus [3]): 18 mm | Zone of Inhibition after 10 washes (S. aureus [3]): 0 mm | Zone of Inhibition after 15 washes (S. aureus [3]): 0 mm | Microbe Growth/on Skin after 0 washes [4, 10]: 0 CFU | Microbe Growth/on Skin after 5 washes [4, 10]: 10^2 CFU | Microbe Growth/on Skin after 15 washes [4, 10]: 10^5 CFU | Microbe Growth/Solution after 5 washes (S. aureus [5]): 0 CFU | Microbe Growth/Solution after 15 washes (S. aureus [5]): 10^3 CFU | toxicity / side effects of topical antimicrobial (microbes on skin): highly toxic | absorption [6]: rapidly absorbed by infants

O=C(O)CC(O)C(=O)O (centres unmarked) [MA, Malic acid]
Zone of Inhibition after 5 washes (S. aureus [3]): 15 mm | Zone of Inhibition after 10 washes (S. aureus [3]): 0 mm | Zone of Inhibition after 15 washes (S. aureus [3]): 0 mm | Microbe Growth/on Skin after 5 washes [4, 10]: 10^5 CFU | Microbe Growth/on Skin after 15 washes [4, 10]: 10^5 CFU | Microbe Growth/Solution after 5 washes (S. aureus [5]): 0 CFU | Microbe Growth/Solution after 10 washes (S. aureus [5]): 10^2 CFU | Microbe Growth/Solution after 15 washes (S. aureus [5]): 10^3 CFU

[O-][n+]1ccccc1S [PYR, Pyrithione]
Zone of Inhibition after 5 washes (S. aureus [3]): 10 mm | Zone of Inhibition after 10 washes (S. aureus [3]): 0 mm | Zone of Inhibition after 15 washes (S. aureus [3]): 0 mm | Microbe Growth/on Skin after 5 washes [4, 10]: 10^4 CFU | Microbe Growth/on Skin after 15 washes [4, 10]: 10^5 CFU | Microbe Growth/Solution after 5 washes (S. aureus [5]): 0 CFU | Microbe Growth/Solution after 10 washes (S. aureus [5]): 10^2 CFU | Microbe Growth/Solution after 15 washes (S. aureus [5]): 10^3 CFU

NC(=O)NC1NC(=O)NC1=O (centres unmarked) [allantoin, Allantoin]
adherence to / retention on skin [7]: enhanced when applied with a polymerizing siloxane | protection from skin erythema by salicylic acid [8]: does provide some protection from skin erythema by salicylic acid, this protection is lost if the skin is washed

CCO[Si](CCCN)(OCC)OCC [aminofunctional silane coupling agent, Aminopropyltriethoxysilane]
antibacterial activity on human skin ([4]; in words, from Table 8): inhibitory activity on bacterial growth on human skin | microbial inhibitory activity on the skin ([4]; in words, no data at the place): substantial microbial inhibitory activity on the skin | microbiocidal activity (S. aureus [5]; in words, from Table 7): not bactericidal

O=C(Nc1ccc(Cl)cc1)Nc1ccc(Cl)c(Cl)c1 [trichlorocarban]
antimicrobial effectiveness on skin (microbes on skin): relatively ineffective

Oc1cc(Cl)ccc1Oc1ccc(Cl)cc1Cl [triclosan, Triclosan]
antimicrobial effectiveness on skin (microbes on skin): relatively ineffective

Hyaluronic acid [HA]
% bound after 5 washes [2]: 5% | % bound after 10 washes [2]: 1% | % bound after 15 washes [2]: 0%

allantion-mono(triethoxy)siloxy ester [Example 6 (d)]
% bound after 5 washes [7]: 47% | % bound after 10 washes [7]: 36% | % bound after 15 washes [7]: 21%
